The structures appear in SMILES notation. Where a name gives a salt, the structure may show the parent alone. Read-outs that look alike come from different tables or passages of the source.

The test system of assay [1] is S. aureus (Sa). The assay is described as follows: Broth microdilution MIC, S. aureus. The assay is classed as cell-based. The note with it: for MIC: Staphylococcus aureus, read-out: Sa + bicarb 25 (MIC). In short, it runs like this: (§1)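 Following CLSI guidance with slight modification, compounds are serially diluted two-fold (eight steps, triplicate) in CAMHB-based media, some containing 25 mM bicarbonate or 0-50% heat-inactivated human serum. Each well receives 5×10^4 CFU of bacteria pre-grown at 35±2° C to 0.5 McFarland turbidity.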

Assay [2] has as its system E. coli (Ec). The experiment in a line: Broth microdilution MIC, E. coli. The settings on record: for MIC: Escherichia coli, read-out: E. coli + bicarb 25 (MIC). It counts as cell-based. In short, it runs like this:
as §1

Assay [3] concerns P. aeruginosa (Pa). The experiment in a line: Broth microdilution MIC, P. aeruginosa. The settings on record: for MIC: Pseudomonas aeruginosa, read-out: Pa + bicarb 25 (MIC). The assay is classed as cell-based. In short, it runs like this: as §1
In assay [4] the test system is A. baumannii (Ab). The assay is described as follows: Broth microdilution MIC, A. baumannii. It counts as cell-based. The settings on record: for MIC: Acinetobacter baumannii, read-out: Ab + bicarb 25 (MIC). In short, it runs like this: as §1
Assay [5] deals with E. faecalis (Ef). The assay is described as follows: Broth microdilution MIC, E. faecalis. It counts as cell-based. The settings on record: for MIC: Enterococcus faecalis, read-out: Ef + bicarb 25 (MIC). In short, it runs like this:
as §1

Assay [6] relates to E. coli S30 extract. The experiment in a line: E. coli S30 extract: inhibition of bacterial protein synthesis (luciferase). It counts as biochemical. The note with it: 37° C. 1 hour. In short, it runs like this: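 Coupled transcription-translation in E. coli S30 extract, programmed with pBESTluc plasmid, was run with 8-point 2-fold compound dilutions for 1 h at 37 °C. After a cold stop, luciferase luminescence was read and percent inhibition calculated against no-inhibitor controls.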

Assay [7] addresses Rabbit Reticulocyte Lysate. The experiment in a line: Rabbit Reticulocyte Lysate: inhibition of eukaryotic protein synthesis (luciferase). The assay is classed as biochemical. The note with it: 30° C. 90 minutes, read-out: Retic. IC50. In short, it runs like this:
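Nuclease-treated rabbit reticulocyte lysate translating luciferase control RNA with complete amino acids; compounds in 8-point 2-fold dilutions, 90 min at 30° C. Luminescence read after luciferase reagent; % inhibition versus water (no-inhibitor) control, no-RNA wells as background.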

The mark [8] stands for this setting: S. aureus, CAMHB supplemented with sodium bicarbonate 25 mM.
[9] abbreviates: E. coli, CAMHB supplemented with sodium bicarbonate 25 mM.
[10] abbreviates: P. aeruginosa, CAMHB supplemented with sodium bicarbonate 25 mM.
Setting [11] is: A. baumannii, CAMHB supplemented with sodium bicarbonate 25 mM.
The mark [12] stands for this setting: E. faecalis, CAMHB supplemented with sodium bicarbonate 25 mM.

On to `CC(C)(N)C(=O)N1CCN(C(=O)Nc2ccn(C3CCC(CN4CC[C@H](CN)C4)CC3)c(=O)n2)CC1` (stereo partly drawn) [Compound 47, (R)-4-(2-Amino-2-methylpropanoyl)-N-(1-(4-((3-(aminomethyl)pyrrolidin-1-yl)methyl)cyclohexyl)-2-oxo-1,2-dihydropyrimidin-4-yl)piperazine-1-carboxamide Hydrochloride], for which the MIC in assay [1] is under 8 µg/mL; in assay [2] it was under 8 µg/mL; in assay [3], over 32 µg/mL; in assay [4] it was over 32 µg/mL; in assay [5] it was over 32 µg/mL. In addition, the IC50 is under 500 nM in assay [6] and at least 1000 nM in assay [7].
For `CC(C)(N)C(=O)N1CCN(C(=O)Nc2ccn(C3CCC(CN[C@H]4CC[C@H](N)CC4)CC3)c(=O)n2)CC1` (mixture of isomers) [Compound 11, 4-(2-Amino-2-methylpropanoyl)-N-(1-(4-(((trans-4-aminocyclohexyl)amino)methyl)cyclohexyl)-2-oxo-1,2-dihydropyrimidin-4-yl)piperazine-1-carboxamide hydrochloride salt], the MIC in assay [1] was under 8 µg/mL; in assay [2], under 8 µg/mL; in assay [3], over 32 µg/mL; in assay [4], over 32 µg/mL; in assay [5], under 8 µg/mL. The IC50 in assay [6] is under 500 nM; in assay [7] it was at least 1000 nM.
As for `CC(C)(N)C(=O)N1CCN(C(=O)Nc2ccn(C3CCC(CN[C@H]4C[C@H](N)C4)CC3)c(=O)n2)CC1` (stereo partly drawn) [Compound 43, trans-4-(2-Amino-2-methylpropanoyl)-N-(1-(4-(((3-aminocyclobutyl)amino)methyl)cyclohexyl)-2-oxo-1,2-dihydropyrimidin-4-yl)piperazine-1-carboxamide hydrochloride salt], the MIC is under 8 µg/mL in assay [1]; under 8 µg/mL in assay [2]; over 32 µg/mL in assay [3]; over 32 µg/mL in assay [4]; 8 to 32 µg/mL in assay [5]. For the same compound, the 50% inhibitory concentration (IC50) in assay [6] was under 500 nM; in assay [7], at least 1000 nM.
Turning to `CN(CC1CC=C(n2ccc(NC(=O)N3CCN(C(=O)C(C)(C)N)CC3)nc2=O)CC1)[C@H]1CC[C@H](N)CC1` (single isomer, unassigned) [Compound 32, trans-4-(2-Amino-2-methylpropanoyl)-N-(1-(4-(((4-aminocyclohexyl)(methyl)amino)methyl)cyclohex-1-en-1-yl)-2-oxo-1,2-dihydropyrimidin-4-yl)piperazine-1-carboxamide hydrochloride salt], the minimal inhibitory concentration (MIC) in assay [1] was under 8 µg/mL; in assay [2], under 8 µg/mL; in assay [3] it was over 32 µg/mL; in assay [4], over 32 µg/mL; in assay [5], 8 to 32 µg/mL. Besides, the IC50 is under 500 nM in assay [6] and at least 1000 nM in assay [7].
On to `CC(C)(N)C(=O)N1CCN(C(=O)Nc2ccn(C3CCC(CN4C[C@@H]5[C@@H](N)[C@@H]5C4)CC3)c(=O)n2)CC1` (stereo partly drawn) [Compound 7, 4-(2-Amino-2-methylpropanoyl)-N-(1-(trans-4-((exo-6-amino-3-azabicyclo[3.1.0]hexan-3-yl)methyl)cyclohexyl)-2-oxo-1,2-dihydropyrimidin-4-yl)piperazine-1-carboxamide hydrochloride salt], for which, in assay [1] (setting [8]), the “Sa + bicarb 25 (MIC)” value is “+++ (An MIC value (μg/mL) that is less than 8 μg/mL)”. The “E. coli + bicarb 25 (MIC)” value in assay [2] (setting [9]) is on record as “+++ (An MIC value (μg/mL) that is less than 8 μg/mL)”. Also, the “Pa + bicarb 25 (MIC)” value in assay [3] (setting [10]) was “+ (An MIC value (μg/mL) that is 32 μg/mL or greater)”. Besides, the “Ab + bicarb 25 (MIC)” value in assay [4] (A. baumannii, CAMHB supplemented with sodium bicarbonate 25 mM, hydrochloride salt) is “++ (An MIC value (μg/mL) that is 8 μg/mL or greater and less than 32 μg/mL)”. Moreover, the “Ef + bicarb 25 (MIC)” value in assay [5] (E. faecalis, CAMHB supplemented with sodium bicarbonate 25 mM, hydrochloride salt) was “+++ (An MIC value (μg/mL) that is less than 8 μg/mL)”. Further, the IC50 in assay [6] (hydrochloride salt) is under 500 nM; in assay [7], at least 1000 nM.
As for `CC(C)(N)C(=O)N1CCN(C(=O)Nc2ccn(C3=CCC(CN[C@H]4CC[C@H](N)CC4)CC3)c(=O)n2)CC1` (stereo partly drawn) [Compound 1, 4-(2-Amino-2-methylpropanoyl)-N-(1-(4-(((trans-4-aminocyclohexyl)amino)methyl)cyclohex-1-en-1-yl)-2-oxo-1,2-dihydropyrimidin-4-yl)piperazine-1-carboxamide hydrochloride salt], the MIC in assay [1] was under 8 µg/mL; in assay [2] it was under 8 µg/mL; in assay [3], over 32 µg/mL; in assay [4] it was over 32 µg/mL; in assay [5], 8 to 32 µg/mL. The IC50 in assay [6] is under 500 nM; in assay [7], at least 1000 nM.
Turning to `CC(C)(N)C(=O)N1CCN(C(=O)Nc2ccn(C3=CCC(CN4CCC(CCN)CC4)CC3)c(=O)n2)CC1` (stereo not drawn) [Compound 26, 4-(2-Amino-2-methylpropanoyl)-N-(1-(4-((4-(2-aminoethyl)piperidin-1-yl)methyl)cyclohex-1-en-1-yl)-2-oxo-1,2-dihydropyrimidin-4-yl)piperazine-1-carboxamide hydrochloride salt], the MIC in assay [1] is under 8 µg/mL; in assay [2], under 8 µg/mL; in assay [3], over 32 µg/mL; in assay [4], over 32 µg/mL; in assay [5], under 8 µg/mL. The values for the IC50 in assay [6] and in assay [7] were under 500 nM and at least 1000 nM, respectively.
Turning to `CN(CC1CC=C(n2ccc(NC(=O)N3CCN(C(=O)C(C)(C)N)CC3)nc2=O)CC1)[C@H]1CC[C@H](N)CC1` (stereo partly drawn) [Compound 30, trans-4-(2-Amino-2-methylpropanoyl)-N-(1-(4-(((4-aminocyclohexyl)(methyl)amino)methyl)cyclohex-1-en-1-yl)-2-oxo-1,2-dihydropyrimidin-4-yl)piperazine-1-carboxamide hydrochloride salt], the MIC was under 8 µg/mL in assay [1]; under 8 µg/mL in assay [2]; over 32 µg/mL in assay [3]; over 32 µg/mL in assay [4]; 8 to 32 µg/mL in assay [5]. For the same compound, the values for the IC50 in assay [6] and in assay [7] were under 500 nM and at least 1000 nM, respectively.
Take `CC(C)(N)C(=O)N1CCN(C(=O)Nc2ccn(C3CCC(CN4C[C@@H]5[C@@H](CN)[C@@H]5C4)CC3)c(=O)n2)CC1` (stereo partly drawn) [Compound 8, 4-(2-Amino-2-methylpropanoyl)-N-(1-(4-((exo-6-(aminomethyl)-3-azabicyclo[3.1.0]hexan-3-yl)methyl)cyclohexyl)-2-oxo-1,2-dihydropyrimidin-4-yl)piperazine-1-carboxamide hydrochloride salt]: the MIC is under 8 µg/mL in assay [1] (setting [8]); under 8 µg/mL in assay [2] (setting [9]); 8 to 32 µg/mL in assay [3] (setting [10]); over 32 µg/mL in assay [4] (setting [11]); under 8 µg/mL in assay [5] (setting [12]). Also, the IC50 was under 500 nM in assay [6] and at least 1000 nM in assay [7].
For the compound `CCN(C[C@H]1CC[C@H](n2ccc(NC(=O)N3CCN(C(=O)C(C)(C)N)CC3)nc2=O)CC1)C1CC2(CC(N)C2)C1` (stereo partly drawn) [Compound 50, trans-4-(2-Amino-2-methylpropanoyl)-N-(1-(4-(((6-aminospiro[3.3]heptan-2-yl)(ethyl)amino)methyl)cyclohexyl)-2-oxo-1,2-dihydropyrimidin-4-yl)piperazine-1-carboxamide hydrochloride salt], the MIC in assay [1] is under 8 µg/mL; in assay [2], under 8 µg/mL; in assay [3] it was over 32 µg/mL; in assay [4], 8 to 32 µg/mL; in assay [5] it was under 8 µg/mL. The IC50 in assay [6] is under 500 nM; in assay [7], at least 1000 nM.
Regarding `CC(C)(N)C(=O)N1CCN(C(=O)Nc2ccn(C3CCC(CN4CC[C@@H](CN)C4)CC3)c(=O)n2)CC1` (stereo partly drawn) [Compound 46, (S)-4-(2-Amino-2-methylpropanoyl)-N-(1-(4-((3-(aminomethyl)pyrrolidin-1-yl)methyl)cyclohexyl)-2-oxo-1,2-dihydropyrimidin-4-yl)piperazine-1-carboxamide hydrochloride salt], the MIC is under 8 µg/mL in assay [1]; under 8 µg/mL in assay [2]; over 32 µg/mL in assay [3]; over 32 µg/mL in assay [4]; over 32 µg/mL in assay [5]. Further, the IC50 was under 500 nM in assay [6] and at least 1000 nM in assay [7].
Regarding `CC(C)(N)C(=O)N1CCN(C(=O)Nc2ccn(C3=CCC(CN4CCC5(CC4)CC(N)C5)CC3)c(=O)n2)CC1` (single isomer, unassigned) [Compound 36], the MIC in assay [1] (setting [8]) was under 8 µg/mL; in assay [2] (setting [9]) it was under 8 µg/mL; in assay [3] (setting [10]), 8 to 32 µg/mL; in assay [4] (setting [11]), 8 to 32 µg/mL; in assay [5] (setting [12]), under 8 µg/mL. Also, the IC50 is under 500 nM in assay [6] and at least 1000 nM in assay [7].

(Values after patent US20250084041A1, “ANTIMICROBIAL COMPOUNDS AND METHODS” (Curza Global, LLC, priority 2021, published 2025).)
